From patent publication US5173496A, “Therapeutic preparations containing indazole derivatives” (ICI Pharma, priority 1987, dated 1992)

Key:
[1] = biological target: T1, cyclooxygenase (Rattus norvegicus, UniProt Q63921); experiment: Test (c): ex vivo assay, oral dosing, blood A23187 challenge, PGE2 radioimmunoassay; assay type: in vivo
T1 construct: incubating a test compound with heparinised rat blood; endogenous in cells; host or cells: heparinised rat blood (platelets and leukocytes)
T1 sequence (Q63921 27-602): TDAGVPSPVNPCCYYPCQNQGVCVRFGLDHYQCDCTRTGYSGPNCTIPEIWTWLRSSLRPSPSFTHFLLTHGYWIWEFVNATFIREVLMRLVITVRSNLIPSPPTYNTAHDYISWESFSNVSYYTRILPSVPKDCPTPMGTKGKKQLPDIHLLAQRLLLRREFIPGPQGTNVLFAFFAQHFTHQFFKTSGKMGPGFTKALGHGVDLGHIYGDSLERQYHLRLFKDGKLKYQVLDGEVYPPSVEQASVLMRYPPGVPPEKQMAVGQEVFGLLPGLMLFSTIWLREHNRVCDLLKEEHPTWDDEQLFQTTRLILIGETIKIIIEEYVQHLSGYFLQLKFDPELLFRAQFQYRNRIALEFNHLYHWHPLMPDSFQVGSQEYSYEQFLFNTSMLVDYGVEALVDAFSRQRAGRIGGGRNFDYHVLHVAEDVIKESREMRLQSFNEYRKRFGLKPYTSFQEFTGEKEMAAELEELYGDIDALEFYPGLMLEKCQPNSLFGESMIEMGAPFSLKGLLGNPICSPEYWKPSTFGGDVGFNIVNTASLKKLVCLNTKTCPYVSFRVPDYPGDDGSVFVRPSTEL
Protocol: (§1) b) An in vitro assay system involving incubating a test compound with heparinised rat blood, prior to challenge with the calcium ionophore A23187 and then indirectly measuring the inhibitory effects on 5-LO by assaying the amount of LTB4 using the specific radioimmunoassay described by Carey and Forder (F. Carey and R. A. Forder, Brit. J. Pharmacol. 1985, 84, 34P) which involves the use of a protein-LTB4 conjugate produced using the procedure of Young et alia (Prostaglandins, 1983, 26(4), 605-613). The effects of a test compound on the enzyme cyclooxygenase (which is involved in the alternative metabolic pathway for arachidonic acid and gives rise to prostaglandins, thromboxanes and related metabolites) may be measured at the same time using the specific radioimmunoassay for prostaglandin E2 (PGE2) described by Carey and Forder (see above). This test provides an indication of the effects of a test compound against 5-LO and also cyclooxygenase in the presence of blood cells and proteins. It permits the selectivity of the inhibitory effect on 5-LO or cyclooxygenase to be assessed.
(§2) c) An ex vivo assay system, which is a variation of test (b) above, involving administration of a test compound (usually orally as a suspension in carboxymethylcellulose)blood collection, heparinisation, challenge with A23187 and radioimmunoassay of LTB4 and PGE2. […]

[2] = biological target: T2, 5-LO (Rattus norvegicus, UniProt P12527); experiment: Test (b): in vitro heparinised rat blood, A23187 challenge, LTB4 radioimmunoassay (5-LO); assay type: cell-based
T2 construct: challenge with A23187 and radioimmunoassay of LTB4 and PGE2; endogenous in cells; host or cells: blood collected after oral dosing, heparinised
T2 sequence (P12527 1-673): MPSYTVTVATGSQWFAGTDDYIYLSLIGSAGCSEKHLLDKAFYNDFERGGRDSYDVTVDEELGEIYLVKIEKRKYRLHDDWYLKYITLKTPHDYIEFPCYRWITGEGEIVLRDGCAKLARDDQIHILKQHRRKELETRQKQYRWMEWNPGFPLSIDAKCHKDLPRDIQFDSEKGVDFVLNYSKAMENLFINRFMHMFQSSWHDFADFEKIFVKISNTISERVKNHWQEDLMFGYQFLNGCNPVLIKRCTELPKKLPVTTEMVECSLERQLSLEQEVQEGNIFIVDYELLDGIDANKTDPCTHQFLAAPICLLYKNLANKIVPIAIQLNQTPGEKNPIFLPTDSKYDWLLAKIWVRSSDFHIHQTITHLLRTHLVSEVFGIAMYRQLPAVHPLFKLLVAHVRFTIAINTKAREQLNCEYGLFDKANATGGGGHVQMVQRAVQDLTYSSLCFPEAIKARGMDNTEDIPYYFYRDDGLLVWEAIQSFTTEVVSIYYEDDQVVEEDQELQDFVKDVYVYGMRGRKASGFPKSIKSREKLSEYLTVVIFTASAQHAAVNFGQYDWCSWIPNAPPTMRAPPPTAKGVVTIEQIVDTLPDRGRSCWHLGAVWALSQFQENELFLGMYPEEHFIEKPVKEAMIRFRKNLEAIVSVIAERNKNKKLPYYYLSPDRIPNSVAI
Protocol: as §1

[3] = biological target: T2, 5-LO; experiment: Test (c): ex vivo assay, oral dosing, blood A23187 challenge, LTB4 radioimmunoassay; assay type: in vivo
Protocol: as §1, §2

[4] = biological target: T1, cyclooxygenase; experiment: Test (b): in vitro heparinised rat blood, A23187 challenge, PGE2 radioimmunoassay (cyclooxygenase); assay type: cell-based
Protocol: as §1

[5] = test system: carrageenin induced oedema in rat paws; experiment: carrageenin induced oedema in rat paws; assay type: in vivo; conditions: dosed orally at 100 mg/kg
Excerpt: A specific known indazolone of formula I which is of particular interest as an inhibitor of 5-LO is, for example, 1,2-dihydro-2-benzylindazol-3-one.

[6] = test system: carrageenin induced oedema in rat paws; conditions: J. Heterocyclic Chemistry, 1970, 7, 815-820; cited from earlier work
[7] = biological target: T3, 5-LO isolated from guinea pig neutrophils (Cavia porcellus, UniProt A0A286X958); experiment: Test (a): in vitro spectrophotometric enzyme assay, cell free system, 5-LO isolated from guinea pig neutrophils; assay type: biochemical
T3 construct: 5-LO isolated from guinea pig neutrophils; from tissue; host or cells: guinea pig neutrophils
T3 sequence (A0A286X958 1-674): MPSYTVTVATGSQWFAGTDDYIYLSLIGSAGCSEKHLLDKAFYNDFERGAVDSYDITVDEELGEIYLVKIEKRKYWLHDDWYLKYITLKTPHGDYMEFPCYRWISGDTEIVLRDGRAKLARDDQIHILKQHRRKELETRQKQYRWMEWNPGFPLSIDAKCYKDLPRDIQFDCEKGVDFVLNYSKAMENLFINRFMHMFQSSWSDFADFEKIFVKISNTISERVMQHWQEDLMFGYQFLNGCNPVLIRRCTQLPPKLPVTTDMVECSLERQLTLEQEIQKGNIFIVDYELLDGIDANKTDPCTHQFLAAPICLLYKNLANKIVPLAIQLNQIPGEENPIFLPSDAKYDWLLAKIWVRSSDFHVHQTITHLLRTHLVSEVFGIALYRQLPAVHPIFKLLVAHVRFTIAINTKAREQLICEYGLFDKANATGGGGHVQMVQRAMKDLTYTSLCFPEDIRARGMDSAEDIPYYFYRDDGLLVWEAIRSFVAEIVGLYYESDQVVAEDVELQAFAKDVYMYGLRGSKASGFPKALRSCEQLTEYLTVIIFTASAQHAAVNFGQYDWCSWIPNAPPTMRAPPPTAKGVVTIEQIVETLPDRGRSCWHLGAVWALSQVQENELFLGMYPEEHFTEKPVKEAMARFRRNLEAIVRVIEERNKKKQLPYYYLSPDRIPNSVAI
Excerpt: a) An in vitro spectrophotometric enzyme assay system, which assesses the inhibitory properties of a test compound in a cell free system using 5-LO isolated from guinea pig neutrophils and as described by D. Aharony and R. L. Stein (J. Biol. Chem., 1986, 261(25), 11512-11519). This test provides a measure of the intrinsic inhibitory properties against soluble 5-LO in an extracellular environment.

| ED50 [1] | IC50 [2] | ED50 [3] | IC50 [4] | IC50 [7] | Compound | significant effects in carrageenin induced oedema in rat paws [5] | anti-inflammatory properties in carrageenin induced oedema in rat paws [6] |
| --- | --- | --- | --- | --- | --- | --- | --- |
| > 100 mg/kg | < 5 µM | < 10 mg/kg | > 100 µM | – | O=c1c2ccccc2[nH]n1Cc1cccnc1 [Example 24] | – | – |
| – | – | – | – | – | O=c1c2ccccc2[nH]n1Cc1ccccc1 [1,2-dihydro-2-benzylindazol-3-one] | unable to detect any significant effects | weak anti-inflammatory properties |
| – | 0.8 µM | 30 mg/kg | 100 µM | 1.7 µM | O=c1c2ccccc2[nH]n1Cc1cccc2ccccc12 [Example 1, 1,2-dihydro-2-(1-naphthylmethyl)-3H-indazol-3-one] | – | – |
